In patent publication US20250064789A1, “KETOAMIDE DERIVATIVES AND PHARMACEUTICAL USES THEREOF” (priority 2022, published 2025):
Read-outs that look alike come from different tables or passages of the source.

Target: recombinant SARS-CoV-2 M^pro (Severe acute respiratory syndrome coronavirus 2 (2019-nCoV) (SARS-CoV-2), UniProt P0DTD1)
Assay: Inhibition of SARS-CoV-2 M^pro enzyme activity (fluorescent substrate assay)
Assay type: biochemical
Settings: inhibition of SARS-CoV-2 M^pro enzyme activity, read-out: IC50

CC(C)(C)OC(=O)N1CC(NC(=O)C2CCC(F)(F)CC2)(C(=O)N[C@H](Cc2ccccc2)C(=O)C(=O)NCc2ccccn2)C1 [Compound 225]
IC50 (values in nM): 38.2 ± 3 nM

O=C(NCc1ccccn1)C(=O)[C@@H](Cc1ccccc1)NC(=O)[C@H](NC(=O)C1CCC(F)(F)CC1)C1CCCC1 [Compound 226]
IC50 (values in nM): 16 ± 0.8 nM

O=C(NCc1ccccn1)C(=O)[C@@H](Cc1ccccc1)NC(=O)C1(NC(=O)C2CCC(F)(F)CC2)CC(F)(F)C1 [Compound 227]
IC50 (values in nM): 19 ± 0.3 nM

O=C(NCc1ccccn1)C(=O)[C@@H](Cc1ccccc1)NC(=O)C1(NC(=O)C2CCC(F)(F)CC2)CCOC1 (stereo partly shown) [Compound 228]
IC50 (values in nM): 18.1 ± 1.1 nM

C=C[C@@H]1C[C@]1(NC(=O)C1CCC(F)(F)CC1)C(=O)N[C@H](Cc1ccccc1)C(=O)C(=O)NCc1ccccn1 [Compound 229]
IC50 (values in nM): 33.8 ± 1 nM

O=C(NCc1ccccn1)C(=O)[C@@H](Cc1ccccc1)NC(=O)[C@H](NC(=O)C1CCC(F)(F)CC1)C1CCOCC1 [Compound 230]
IC50 (values in nM): 64.5 ± 0.7 nM

C#CCC(NC(=O)C1CCC(F)(F)CC1)C(=O)N[C@H](Cc1ccccc1)C(=O)C(=O)NCc1ccccn1 (stereo partly shown) [Compound 231]
IC50 (values in nM): 35.4 ± 0.2 nM

CN(C)CC(NC(=O)C1CCC(F)(F)CC1)C(=O)N[C@H](Cc1ccccc1)C(=O)C(=O)NCc1ccccn1 (stereo partly shown) [Compound 232]
IC50 (values in nM): 60.7 ± 0.1 nM

O=C(NCc1ccccn1)C(=O)[C@@H](Cc1ccccc1)NC(=O)[C@@]1(NC(=O)C2CCC(F)(F)CC2)C[C@H]1C(F)F [Compound 233]
IC50 (values in nM): 10.3 ± 0.3 nM

O=C(NCc1ccccn1)C(=O)[C@@H](Cc1ccccc1)NC(=O)C1(NC(=O)C2CCC(F)(F)CC2)COC1 [Compound 234]
IC50 (values in nM): 18.8 ± 2.7 nM

O=C(NCc1ccccn1)C(=O)[C@@H](Cc1ccccc1)NC(=O)C1(NC(=O)[C@@H]2C[C@@H]3[C@H](C2)C3(F)F)CC(F)(F)C1 [Compound 235]
IC50 (values in nM): 28.6 ± 2.1 nM

O=C(CC1CCC(F)(F)CC1)N[C@H](CC1CCCCC1)C(=O)N[C@H](Cc1ccccc1)C(=O)C(=O)NCc1ccccn1 [Compound 236]
IC50 (values in nM): 41.4 ± 0.1 nM

CC(C)(C)C(NC(=O)C1CCC(F)(F)CC1)C(=O)N[C@H](Cc1ccccc1)C(=O)C(=O)NCc1ccccn1 (stereo partly shown) [Compound 237]
IC50 (values in nM): 132 ± 4.4 nM

O=C(NCc1ccccn1)C(=O)[C@@H](Cc1ccccc1)NC(=O)C1(NC(=O)C2CCC(F)(F)CC2)CCCC1 [Compound 239]
IC50 (values in nM): 32.2 ± 1 nM

CC(C)(O)[C@@H](NC(=O)C1CCC(F)(F)CC1)C(=O)N[C@H](Cc1ccccc1)C(=O)C(=O)NCc1ccccn1 [Compound 241]
IC50 (values in nM): 42.1 ± 1.6 nM

CC(C)[C@@H](NC(=O)C1CCC(F)(F)CC1)C(=O)N[C@H](Cc1ccccc1)C(=O)C(=O)NCc1ccccn1 [Compound 242]
IC50 (values in nM): 26.8 ± 1.8 nM

O=C(NCc1ccccn1)C(=O)[C@@H](Cc1ccccc1)NC(=O)C1(NC(=O)C2CCC(F)(F)CC2)Cc2ccccc2C1 [Compound 243]
IC50 (values in nM): 18.4 ± 0.1 nM

O=C(CC1CCC(F)(F)CC1)NC1(C(=O)N[C@H](Cc2ccccc2)C(=O)C(=O)NCc2ccccn2)Cc2ccccc2C1 [Compound 244]
IC50 (values in nM): 15.1 ± 0.1 nM

CC(C)(C)[C@H](NC(=O)C(F)(F)F)C(=O)N[C@H](Cc1ccccc1)C(=O)C(=O)NCc1ccccn1 [Compound 245]
IC50 (values given in μM): > 5000 nM

CC[C@@H](NC(=O)c1ccc(F)cc1)C(=O)N[C@H](Cc1ccccc1)C(=O)C(=O)NCc1ccccn1 [Compound 246]
IC50 (values in nM): 23.6 ± 0.3 nM

CC(C)[C@@H](NC(=O)c1ccc(F)cc1)C(=O)N[C@H](Cc1ccccc1)C(=O)C(=O)NCc1ccccn1 [Compound 247]
IC50 (values in nM): 38.2 ± 2.8 nM

O=C(NCc1ccccn1)C(=O)[C@@H](Cc1ccccc1)NC(=O)C1(NC(=O)c2ccc(F)cc2)CCCC1 [Compound 248]
IC50 (values in nM): 24.6 ± 0.6 nM

O=C(NCc1ccccn1)C(=O)[C@@H](Cc1ccccc1)NC(=O)C(NC(=O)c1ccc(F)cc1)C(F)(F)F (stereo partly shown) [Compound 249]
IC50 (values in nM): 256 ± 6.4 nM

O=C(NCc1ccccn1)C(=O)[C@@H](Cc1ccccc1)NC(=O)[C@H](NC(=O)c1ccc(F)cc1)C1CC1 [Compound 250]
IC50 (values in nM): 42.4 ± 2.4 nM

CC[C@@H](C)C(NC(=O)c1ccc(F)cc1)C(=O)N[C@H](Cc1ccccc1)C(=O)C(=O)NCc1ccccn1 (stereo partly shown) [Compound 251]
IC50 (values in nM): 34.2 ± 0.5 nM
